Source: patent US8163785B2, “Pyrazolo[5,1b]oxazole derivatives as CRF-1 receptor antagonists” (Novartis AG, priority 2010, dated 2012)

Target: T1, human recombinant CRF-1 receptor (Homo sapiens, UniProt P34998)
T1 construct: expressed in transfected cells; host or cells: Chinese hamster ovary (CHO) cells, G418-selected
T1 sequence (P34998 24-415): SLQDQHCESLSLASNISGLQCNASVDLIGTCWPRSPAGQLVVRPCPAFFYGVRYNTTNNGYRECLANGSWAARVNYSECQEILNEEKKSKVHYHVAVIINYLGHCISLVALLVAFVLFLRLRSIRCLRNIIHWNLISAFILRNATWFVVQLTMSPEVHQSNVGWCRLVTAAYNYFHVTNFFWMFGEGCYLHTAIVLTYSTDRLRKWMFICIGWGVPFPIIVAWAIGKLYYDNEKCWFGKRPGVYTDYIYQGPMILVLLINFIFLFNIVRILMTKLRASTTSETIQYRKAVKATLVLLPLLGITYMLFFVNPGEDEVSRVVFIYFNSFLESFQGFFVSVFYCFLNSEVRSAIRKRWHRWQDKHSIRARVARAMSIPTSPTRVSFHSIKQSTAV
Assay: CRF-1 receptor antagonism, HTRF cAMP assay in CHO cells in the presence of 1 nM CRF
Format: cell-based
Conditions: CHO cells expressing human recombinant CRF-1; inhibition of the effect of 1 nM CRF on cAMP; read-out: hCRF1ANTAG/IC50
Procedure: The CRF-1 or CRF-2a receptor activity of the agents of the invention has been determined in vitro in the following way:
Chinese hamster ovary (CHO) cells expressing either the human recombinant CRF-1 or CRF-2a receptors (Chen et al., Proc Natl Acad Sci USA 90, 8967-8971, 1993; Liaw et al., Endocrinology 137, 72-77, 1996) are propagated in Dulbecco's modified Eagle medium supplemented with 10% foetal calf serum, non-essential amino acids, 100 U/ml penicillin, 100 mg/l streptomycin and 1 g/l geneticin (G418). For cyclic AMP determinations the Homogeneous Time-Resolved Fluoresce (HTRF) cAMP dynamic 2 kit (Cishbio International, France) was used as per manufacturers' instructions. CHO cells, previously cryopreserved, were thawed, centrifuged for 7 mins at 1200 rpm and resuspended in serum free media, then pipetted out onto clear bottomed black tissue culture treated 384-well microtitre plates (Corning Inc, US) at 2,000 cells per well. […] The plate is read on the Pherastar (BMG, Germany). […] Values represented by a change in arbitrary fluorescence units are converted into cAMP concentrations by use of a standard curve the reagents for which are supplied with the kit. […] IC50 values of antagonists are calculated by fitting the percent inhibition of the effect of CRF by increasing concentrations of the antagonists. […]

IC50: 71 nM
SMILES: Cc1nc(C)n(-c2c(C)nn3c(-c4ccc(OC(F)F)cc4C)c(C)oc23)n1 [Example 1, 3-(4-(Difluoromethoxy)-2-methylphenyl)-7-(3,5-dimethyl-1H-1,2,4-triazol-1-yl)-2,6-dimethylpyrazolo[5,1-b]oxazole]
